Experiment [1] deals with T1, N300 (Nitratiruptor phage NrS-1, UniProt M5AAG8).
T1 construct: gene 28; N-terminal 300 residues (Prim/Pol domain + helix bundle domain) of NrSPol; pET28b, 6xHis with TEV site, tag cut for crystals (SeMet for ddCTP crystal); E. coli
In words: X-ray crystal structure of complex (SeMet, SAD, […] A). As to conditions: Ca2+ (200 mM calcium acetate in crystals), pH 7.0; active site, 3'-site nucleotide. It is filed as binding.

Experiment [2] concerns the target T1, N300. Nature of the experiment: X-ray crystal structure of complex (native, […] A). It is filed as binding. The settings on record: Mg2+; crystallised with ddCTP and ssDNA, pH 4.5; active site.

T1 sequence (M5AAG8 1-300): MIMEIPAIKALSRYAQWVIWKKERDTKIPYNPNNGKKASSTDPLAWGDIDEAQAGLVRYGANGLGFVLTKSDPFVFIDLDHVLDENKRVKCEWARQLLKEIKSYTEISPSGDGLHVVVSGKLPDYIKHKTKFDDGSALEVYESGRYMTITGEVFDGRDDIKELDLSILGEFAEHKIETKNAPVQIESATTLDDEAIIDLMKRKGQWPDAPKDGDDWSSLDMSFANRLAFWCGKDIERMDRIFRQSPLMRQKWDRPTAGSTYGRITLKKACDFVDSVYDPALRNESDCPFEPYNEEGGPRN

Take `Nc1ccn([C@H]2CC[C@@H](COP(=O)(O)OP(=O)(O)OP(=O)(O)O)O2)c(=O)n1` [ddCTP]: at N300 [1], the “X-ray crystal structure of complex (SeMet, SAD, 2.24 A)” value is given as “we determined the crystal structures of N300 in complex with ddCTP”.
Turning to `O=P(O)(O)OP(=O)(O)O` [pyrophosphate], the “X-ray crystal structure of complex (native, 1.86 A)” value at N300 [2] is recorded as “a pyrophosphate (PPi) occupies the active site instead of ddCTP”.

Values taken from publication PMC8718748, “Molecular Dissection of the Primase and Polymerase Activities of Deep-Sea Phage NrS-1 Primase-Polymerase” (Frontiers in Microbiology, 2021).
